Measurements taken from patent US20250345275A1, “Micromolar Halogenated Fluorescein Assists in Full Skin-Thickness Wound Healing” (priority 2024, published 2025).
Where “and” joins values, the source holds several entries; their conditions need not be identical. Equal entries are not always repeated. Entries after “also recorded” stand apart in the source; their conditions may differ.

Assays:
[1] = tested on: full-thickness cutaneous wounds; experiment: Wound closure by planimetry of digital images; format: in vivo, BALB/c mice; details: for wound closure compared with vehicle alone: 0.01% RB, no irradiation, day 3 post-injury (FIG. 4)
Procedure: (§1) A Balb/C mice excision model was used with a cutaneous full-thickness injury made by a 6-mm diameter punch biopsy. The mice were 7-weeks old and 52 animals were used in the studies discussed herein.
(§2) Animals were administered the RB-containing PF-127-containing hydrogel every other day. A total of three animal treatment groups were studied along with two control groups. one group received vehicle plus light treatment, whereas the other group received vehicle without light. One treatment group of mice received 0.1% RB-containing hydrogel with irradiation for 30 minutes using monochromatic green light (MGL), λ=532 nm at a distance of 2.5 cm that provided […] and a dose of 35J/cm^2. A second treatment group also received 0.1% RB-containing hydrogel, but without MGL irradiation. The third treatment group received 0.01% RB-containing hydrogel without MGL irradiation.
Before surgery, animals received buprenorphine (0.1 mg kg^−1) for pre-procedural analgesia, and inhaled isoflurane (0.2-1.0%) was continuously administered throughout the procedure. The dorsum of the animal was shaved, a depilatory cream was applied to completely remove all dorsal hair, and the area was scrubbed with betadine antiseptic. The animal was laid in the right lateral decubitus position and using forceps, the dorsal skin was stretched, and a 6-mm punch biopsy was used to create bilateral full-thickness cutaneous wounds. Next, a 0.5 mm-thick silicone ring was sutured in place through the panniculus carnosus around each wound to ensure wounds healed primarily through re-epithelialization.
Animals were then randomized into treatment groups as follows: (1) Saline control in the dark, (2) Saline control with MGL irradiation, (3) Hydrogel vehicle in the dark, (4) Hydrogel vehicle with MGL irradiation, (5) RB in the dark, and (6) RB with MGL irradiation. Treatment was applied directly to the wound bed (800 uL per wound) and spread using a sterile surgical spatula to ensure even and uniform thickness over the wound.
Animals were then placed in a separate light-sealed and heated enclosure in a sternal position to expose dorsal wounds and remained under general isoflurane anesthesia. All other exposed portions of the body were then covered with sterile wrap to expose only the wounds. […] Animals were euthanized at 3-, 7-, and 14-days post-injury when wound healing parameters were assessed.
After initial surgery and at each study time point post-injury, color digital images were obtained for each wound. […] Wound planimetry was calculated using ImageJ software (ver. 1.53) by tracing wound edges yielding a surface area in […]. Wound closure was calculated as follows: […]

[2] = tested on: full-thickness cutaneous wounds; experiment: Number of blood vessels in the wound area (smooth muscle actin staining); format: in vivo, BALB/c mice; details: 0.01% RBS in vehicle, p<0.05 (FIG. 6); group not clearly stated
[3] = tested on: full-thickness cutaneous wounds; experiment: Wound erythema index, DermaLab Combo; format: in vivo, BALB/c mice
Procedure: (§3) Animals were placed under general anesthesia and a 10-mm diameter TEWL probe was placed directly over each wound ensuring uniform coverage and forming a seal immediately around the wound. Following environmental normalization to ambient temperature and relative humidity, TWEL was calculated at […]. A minimum of three TWEL measurements were obtained for each full-thickness wound and uninjured skin area. A color sensitive 7-mm diameter probe, insensitive to ambient light, was then placed over each wound to measure erythema; four measures were obtained for each wound. All wound erythema calculations were normalized to uninjured skin and reported as an index value over time.
as §3, with “At each time point prior to euthanasia, transepidermal water loss (TEWL) and wound erythema indices were measured using the validated DermaLab combo system (CortexTechnologies, Hadsund, Denmark). Animals” for “Animals”, “TEWL” for “TWEL”

[4] = Body weight, survival, adverse events and organ examination in mice with full-thickness wounds; format: in vivo, BALB/c mice; details: for loss of body weight: 3 and 7 days post-injury (FIG. 1A)
Procedure: Animals: The Institutional Animal Care and Use Committee of the University of Texas Medical Branch in Galveston (UTMB) approved all protocols and studies were conducted in accordance with animal welfare regulations. Healthy 7-week-old male BALB/c mice (N=58) (strain 028, Charles River Laboratories, Houston, Texas, USA) 18-22 g were socially housed in temperature-and light-controlled facilities at UTMB with free access to food and water. Animals were acclimatized for one week before surgical procedures.
as §1, §2
(§4) Primary outcomes assessed safety through analysis of full complete blood count (CBC), comprehensive blood chemistry, body and organ weight. Secondary outcomes analyzed wound closure, epidermal water loss, erythema, and comprehensive wound histology.
(§5) In the primary outcome and measures and observations, the treated animals and a control group received a full CBC and comprehensive blood chemistry panel, as well as observations of body weight food consumption, and organ appearance. Secondarily, wound closure, epidermal water loss erythema and wound histology were examined.
(§6) to determine the effects of rose bengal on blood parameters, blood samples were collected at euthanasia through cardiac puncture and were analyzed for complete blood count using an Abaxis VETSCAN® HM5 Hematology Analyzer Allied Analytic, LLC., Tampa, FL. The blood components analyzed included: white blood cells [WBC], lymphocytes [LYMPH], monocytes [MONO], neutrophils [NEUT], red blood cells [RBC], hemoglobin [HGB], hematocrit [HCT], mean corpuscle volume [MCV], mean corpuscle hemoglobin [MCH], mean corpuscle hemoglobin concentration [MCHC], platelets [PLT], and mean platelet volume [MPV]. Blood chemistry was also analyzed using an Abaxis VETSCAN® VS2 Chemistry Analyzer—Diagnostics to determine liver and Pancreas function through Albumin [ALB], Alkaline phosphatase [ALP], Alanine aminotransferase [ALT], Total bilirubin [tBIL], Total protein [TPRT], Globulin [GLOB], and Amylase [AMY]. Glucose & electrolyte levels were determined by measuring Glucose [GLU], Calcium [CA], Phosphorus [PHOS], Sodium [NA], and Potassium [K]. Kidney Function was assessed through Creatinine [CRE] and Blood urea nitrogen [BUN] levels.

[5] = tested on: full-thickness cutaneous wounds; experiment: Transepidermal water loss (TEWL) over the wound, DermaLab Combo; format: in vivo, BALB/c mice; details: 0.01% RBS, no irradiation; for TEWL relative to usual (pre-injury) range: day 14 post-injury (FIG. 2B); for TEWL compared with vehicle alone: day 14 post-injury, p<0.0001 (FIG. 2B)
Procedure: as §3
as §3, with “At each time point prior to euthanasia, transepidermal water loss (TEWL) and wound erythema indices were measured using the validated DermaLab combo system (CortexTechnologies, Hadsund, Denmark). Animals” for “Animals”, “TEWL” for “TWEL”

[6] = tested on: full-thickness cutaneous wounds; experiment: Tissue ROS generation in full-thickness injury; format: in vivo, Balb/c mice; details: RB phototherapy
From the text: Following functional and planimetric measurements, animals were euthanized and the dorsal skin, inclusive down to underlying facia and dorsal musculature, was excised; care was employed to not disrupt any open wound post-mortem and maintain tissue integrity. The left-side wound and surrounding uninjured skin was directly transferred into a flat position histology cassette and the right-side wound was immediately snap-frozen in liquid nitrogen for reactive oxygen species and molecular analyses. Histology cassettes were then immersed in 10% neutral buffer formalin for 72 hours and subsequently placed in 70% ethanol thereafter. Uninjured skin tissue for each animal was also collected and preserved for future analyses.
Data are presented as mean±SD with n=3-6 animals per group

[7] = Tolerated bolus dose on intravasation after intratumoral PV-10; format: in vivo; details: equivalent of the 1500 mg bolus
Procedure: The wounds were treated with an aqueous pharmaceutical composition prepared using a PV-10®-based rose bengal formulation. PV-10® is a sterile, non-pyrogenic 10% solution of disodium RB in 0.9% saline for injection. Using PV-10®, as its RB source, RB has been tolerated at a bolus dose of 1500 mg upon intravasation when delivered intratumorally; this equates to an exposure of approximately 300 mg/L in the bloodstream (300 μM RB).

[8] = Complete blood count and blood chemistry panel; format: in vivo, BALB/c mice
From the text: as §4, §5, §6

[9] = non-medical grade rose bengal, photoactivation with 550 nm MGL; cited from earlier work
[10] = PV-10 as RB source, delivered intratumorally; cited from earlier work
[11] = 0.01% RBS, no irradiation, day 7 post-injury, p<0.0001 (FIG. 3B)
[12] = 0.01% RBS, no irradiation, day 14 post-injury
[13] = 0.01% RB every other day without photoactivation
[14] = 0.1% RB every other day with or without photoactivation
[15] = 0.1% RB every other day with or without photoactivation, out to 7 days

For `O=C([O-])c1c(Cl)c(Cl)c(Cl)c(Cl)c1-c1c2cc(I)c(=O)c(I)c-2oc2c(I)c([O-])c(I)cc12.[Na+].[Na+]` [RBS, rose bengal disodium], the “wound closure compared with vehicle alone” value [1] was “statistically significantly less”, the “number of blood vessels, day 7 versus day 3 post-injury” value [2] was “statistically greater” and the “erythema index compared with vehicle alone” value [3, 11] was “statistically significant difference”. The “erythema index compared with vehicle alone” value [3, 12] was “not statistically different”, the “erythema index relative to usual values” [3, 12] was “very similar to the usual erythema index values” and the “loss of body weight” value ([4]; 0.1% RBS with irradiation (MGL)) was “approximately 5%”. For the same compound, the “loss of body weight” value ([4]; 0.1% RBS without irradiation) was “approximately 5%”, the “TEWL relative to usual (pre-injury) range” value [5] was “back at their usual range” and the “TEWL compared with vehicle alone” value [5] was “statistically significant difference”.

With `O=C1OC2(c3cc(I)c(O)c(I)c3Oc3c2cc(I)c(O)c3I)c2c(Cl)c(Cl)c(Cl)c(Cl)c21` [RB, 4,5,6,7-tetrachloro-2′, 4′, 5′, 7′-tetraiodo-fluorescein] the “tissue ROS” value ([6]; 3 days post-injury, versus all other treatments) was “significantly increased tissue ROS”, the “tissue ROS” value ([6]; day 14) was “abates to nominal levels” and the “tissue ROS” value ([6]; throughout 7 days, versus all other treatments) was “sustained”. For the same compound, the “wound closure compared with vehicle alone” value [1] was “accelerates wound closure”, the “wound closure compared with saline- or vehicle-treated wounds” value ([1]; RB with or without MGL irradiation, 3 and 7 days after injury) was “significantly closes full-thickness wounds faster” and the “wound closure compared with every other treatment group” value ([1]; photoactivated RB, 14 days post-injury, p<0.05) was “significantly increased wound closure”. For the same compound, the “exposure in the bloodstream” value [7] was “approximately 300 mg/L and 300 μM”, the other chemistries [8, 13] was “within normal ranges” and the “Erythrocytes and platelets size, morphology, count” value ([8]; 0.01% RB every other day without photoactivation, out to 14 days) was “normal”. For the same compound, the Leukocyte count ([8]; 0.01% RB every other day without photoactivation, out to 14 days post-injury/treatment) was “normal”, the mean amylase ([8]; 0.01% RB every other day without photoactivation, all groups) was “Elevated” and the other chemistries [8, 14] was “within normal ranges”. The “Erythrocytes and platelets size, morphology, count” value [8, 15] was “normal”, the Leukocyte count ([8]; 0.1% RB every other day with or without photoactivation, out to 7 days post-injury) was “normal” and the mean amylase ([8]; 0.1% RB every other day with or without photoactivation, all treated groups) was “Elevated”. The “erythema index compared with vehicle alone” value [3, 11] was “significantly increased”, the “erythema, day 3 versus day 7” value ([3]; 0.1% RB, days 3 and 7 post injury (FIG. 3A)) was “about the same” and the adverse events [4, 13] was “no adverse events noted”. The “survival through time course” value ([4]; 0.01% RB every other day without photoactivation, n=33) was “All animals survived”, the Mean body mass ([4]; 0.01% RB every other day without photoactivation, throughout treatment) was “maintained” and the body weight ([4]; 0.01% RB, no irradiation, day 14 post-injury (between day 7 and 14)) was “slight weight gains; also recorded: gained weight; also recorded: slight increase”. The adverse events [4, 14] was “no adverse events noted”, the “survival through time course” value ([4]; 0.1% RB every other day with or without photoactivation, n=19) was “All animals survived” and the “mean body mass loss” value [4, 15] was ~5%. For the same compound, the body weight ([4]; 0.1% RB with and without irradiation, first seven days post-injury) was “lost weight”, the “Body weight and gross examination of internal organs” value ([4]; at euthanasia) was “did not show any signs of toxicity” and the “loss in body or organ weight” value ([4]; either treatment regimen (single or multidose)) was “No loss”. For the same compound, the “toxicity / safety for wound healing applications” value ([4]; single (photoactivated) and multidose (ambient light, covered) topical application to full-thickness wounds) was “did not illicit toxicity”, the body weight ([4]; vehicle containing 0.01% RB, no irradiation, days 3 and 7 post-injury (FIG. 1B)) was “constant weights; also recorded: maintained their weights” and the wound closure [9] was “accelerates wound closure”. For the same compound, the wound healing [9] was “improves wound healing”, the “tolerated bolus dose upon intravasation” value [10] was 1500 mg and the “TEWL relative to usual (pre-injury) range” value [5] was “about at the normal level”. The “TEWL compared with vehicle alone” value [5] was “significantly reduced”.
